Experimental data taken from patent US20210038732A1, “ANTICANCER MICRORNA AND LIPID FORMULATIONS THEREOF” (INTERNA TECHNOLOGIES B.V., priority 2018, published 2021).

Experiments:
A2058 melanoma cells = experiment: Adenosine assay; assay type: cell-based, human; settings: miRNA-193a-3p at 10 nM, vs untreated, mock, scrambled
Procedure: 4000 A2058 melanoma cells were seeded per well in a 96 well plate. 4h after seeding, cells were transfected with different concentrations of miRNA-193a-3p, scrambled control, siNT5E and siPool as control. 24h post transfection the cells were treated with 500 μM AMP and adenosine measurement was performed 24h post-treatment following steps from adenosine measurement kit (BioVision).

H1975 = experiment: Cell viability (MTS assay or cell count); assay type: cell-based; settings: 10 nM; NSCLC H1975; normalized to mock
Procedure: (§1) Depending on cancer cell type 3000-6000 cells were seeded in a 96 well plate. After cells attached, they were transfected with different concentrations of miRNA-193a and viability was measured at different time points. Viability measurement was performed using CellTiter 96 AQueous One Solution Cell Proliferation Assay (Promega). 20 μL of MTS reagent was added to 100 μL of media in each well in 96-well plate and incubated for 2 hours at 37° C. Absorbance was measured at 490 nm for each sample in 96 well plate reader.
(§2) Different biological effects of miRNA-193a-3p have been tested in various cancer cell lines (see Table 13). For this, various cells were treated with miRNA-193a at different concentrations (1, 3, 10 nM). For all experiments controls (untreated, mock and scrambled) were measured. […] Data shown in Table 13 are the results for miRNA-193a at 10 nM concentration at indicated time points. All the results have been quantified and normalized to the mock control.
(§3) miRNA-193a treatment in various cancer cell lines decreased cell viability over time as measured by either an MTS assay or by cell count. It enhanced apoptosis induction over time as measured by a caspase 3/7 apoptosis assay. […] It is of note that due to intrinsic characteristics and gene mutation status of each cell line, performing one method to detect apoptosis is not always ideal for all cell lines.

HCT116 = experiment: Cell viability (MTS assay or cell count); assay type: cell-based; settings: 10 nM; Colon HCT116; normalized to mock
Procedure: as §1, §2, §3

Panc-1 = experiment: Cell viability (MTS assay or cell count); assay type: cell-based; settings: 10 nM; Pancreas Panc-1; normalized to mock
Procedure: as §1, §2, §3

H1299 = experiment: Cell viability (MTS assay or cell count); assay type: cell-based; settings: 10 nM; NSCLC H1299; normalized to mock
Procedure: as §1, §2, §3

[1] = system: K-Ras, MCL1, ENTPD1 (CD39) and TIM-3; experiment: PD effect: target gene mRNA in orthotopic 4T1 tumors by qPCR (Example 4.6); assay type: in vivo, mice; settings: 10 mg/kg iv QDx2; various time points 2-72 h post final dose
Procedure: To prepare cDNA, first 100 ng total RNA was mixed with Random Hexamers (Qiagen; final concentration 2 μM) in a final volume of 12.5 μl in NFW, denatured for 5 min at 70° C. and immediately cooled on ice. Next, 7.5 μl of a cDNA synthesis mix was added, consisting of 4 μl 5×RT Buffer (Promega), 0.4 μl 25 mM dNTPs (Promega), 1 μl 200 U/μL MMLV RT-enzyme (Promega), 0.5 μL 40 U/μL RNAse Inhibitor (Promega) and 1.6 μL NFW. The following cDNA synthesis protocol was used:
Six to eight weeks old female BALB/c mice (Shanghai Lingchang Bio-Technology Co. Ltd, Shanghai, China) were injected with 3×10^5 4T1 mouse tumor cells in PBS (0.1 mL/mouse) into the mammary fat pad. At the time of randomization, the tumor volumes (TVs) ranged between 252.30-370.45 mm^3. After randomization mice received similar treatments with similar dosing regimen (see Table 11). Mice were sacrificed at pre-determined time points (see Table 11). The tumors from each mouse were collected, snap frozen in liquid nitrogen and then stored at −80° C.
Assessed genes include K-Ras, MCL1, ENTPD1 (CD39) and TIM-3. The role and biological importance for these target genes is briefly discussed in Table 12.

[2] = system: 3′ untranslated regions (UTR) of NT5E (CD73); experiment: 3′UTR luciferase assay in Hela cells; assay type: cell-based; settings: 10 nM
Procedure: Firefly luciferase reporter constructs containing the 3′ untranslated regions (UTR) of NT5E (CD73) were transfected in Hela cells along with 10 nM miRNA-193a-3p or a scrambled control. Cell extracts were prepared 24 hours after transfection, and luciferase activity was measured using the Dual Luciferase Reporter Assay System (Promega). If the 3′UTR is a target of the miRNA, miRNA will interact with 3′UTR and provides lower luciferase signal.

[3] = system: subq human A2058 melanoma tumors; experiment: Tumor growth inhibition, different doses and regimens, subq A2058 (Example 4.5); assay type: in vivo, mice; settings: day 21
Procedure: Six to eight weeks old female BALB/c nude mice (Shanghai Lingchang Bio-Technology Co. Ltd, Shanghai, China) were unilaterally and subcutaneously injected in the right flank with 5×10^6 A2058 tumor cells in PBS (0.1 mL/mouse). At the time of randomization, the TVs ranged between 50.3 and 156.3 mm3 (median 104.8, IQR=91.9-127.1). After randomization, the mice received different miRNA-193a dosing concentrations under different dosing regimen (see Table 10 for dosing scheme). The BRAF-inhibitor vemurafenib was also included. Body weights and TVs (caliper measurements) were determined three times/week. *QDx3,QDx4=one injection per day for 3 or 4 consecutive days; BIW=twice a week, BID=twice daily. Po=per oral.

A549, H460 = experiment: Cell viability (MTS assay or cell count); assay type: cell-based, human; settings: 10 nM; NSCLC A549, H460; normalized to mock
Procedure: as §1, §2, §3

Huh7 = experiment: Cell viability (MTS assay or cell count); assay type: cell-based, human; settings: 10 nM; HCC Huh7; normalized to mock
Procedure: as §1, §2, §3

HeP3B, SNU449 = experiment: Cell viability (MTS assay or cell count); assay type: cell-based, human; settings: 10 nM, HCC HeP3B, normalized to mock
Procedure: as §1, §2, §3

A2058 = experiment: Cell viability (MTS assay or cell count); assay type: cell-based, human; settings: 10 nM; Melanoma A2058; normalized to mock
Procedure: as §1, §2, §3

miRNA-193a: duplex of the miRNA-193a-3p of SEQ ID NO: 218 (mimic, sense) with antisense strand SEQ ID NO: 219; naked in vitro, formulated in vivo (sense UGGGACUUUGUAGGCCAGUUTT; antisense AACUGGCCUACAAAGUCCCAGU; chemistry not given here; listed as Homo sapiens)
Adenosine generation (A2058 melanoma cells): reduces | Viability (96 h) (H1975): ↓↓ (Viability < 50%) | Viability (96 h) (HCT116): ↓↓ (Viability < 50%) | Viability (96 h) (Panc-1): ↓↓ (Viability < 50%) | Viability (96 h) (H1299): ↓↓ (Viability < 50%) | Target mRNAs expression in tumor [1]: significant reduction | Luciferase activity of reporter construct containing mutated form of the CD73 3′UTR [2]: did not affect the luciferase activity | Luciferase activity of reporter construct containing NT5E 3′UTR region ([2]; vs mock and scrambled controls): downregulation of the activity | Tumor growth (relative tumor volume) ([3]; QDx3 6.7 mg/kg iv x3 weeks, nanoparticles according to the invention): significant reduction of tumor growth | Tumor growth (relative tumor volume) ([3]; the other dosing regimen (10 mg/kg BIW; 5 mg/kg QDx4)): mild trend | Viability (96 h) (A549, H460): ↓↓ (Viability < 50%) | Viability (96 h) (Huh7): ↓↓ (Viability < 50%) | Viability (96 h) (HeP3B, SNU449): ↓↓ (Viability < 50%) | Viability (96 h) (A2058): ↓↓ (Viability < 50%)
